In article PMC9381536, “Non-apoptotic cell death induction via sapogenin based supramolecular particles” (Scientific Reports, 2022):

Legend:
HCC1937 cells = assay: Cell viability with Tween 20 blocking particle formation; assay type: cell-based, Human; conditions: HCC1937, 24 h
Method: Figure 1 AG-08 mediated cytotoxicity relies on the supramolecular structures. (A) Structure of AG-08. (B) The scanning transmission electron micrograph of 16 µM AG-08 in PBS. Figure is a representative image of stained sample with uranyl acetate (5683 × magnification; scale bar 600 nm). (C) After 3 h incubation of Nile red solution with AG-08 or AG, fluorescence intensity of Nile red was measured. (D) AG-08, Staurosporine (Sta) or vehicle samples prepared in the cell condition medium was filtrated by 220 nm filter and HCC1937 cells were exposed to the filtrates. After 24 h, the viability of cells was measured and represented as a percentage of that of the vehicle control. The error bars represent mean value ± s.d. (n = 3). *p < 0.05, **p < 0.005, ***p < 0.001. […] Cell viability was detected after 24 h incubation. […]
To verify that the activity of AG-08 arises from its supramolecular structures, freshly prepared AG-08 solutions were filtered using 220 nm-filters to remove AG-08 supramolecular particles from medium, and the filtrates were analyzed for their cytotoxicity. […]
Figure 5 The cytotoxic activity of analogs depends on particle formation like AG-08. […] The level of released LDH was calculated as fold change relative to vehicle. […] After 24 h, cell viability was measured. […] Cell viability after 24 h was measured. […]

[1] = test system: differentially expressed genes; assay: Microarray gene expression analysis (human Clariom D); assay type: cell-based
Method: To investigate the overall cellular response to AG-08 treatment, microarray gene expression analysis of cells treated with vehicle and AG-08 treated groups was performed. […] Next, protein–protein interaction (PPI) network analysis was evaluated by the STRING (Search Tool for the Retrieval of Interacting Genes/Proteins) network. There were 61 nodes and 145 edges in the network (PPI enrichment p-value < 1 × 10^–16). […] Then, enrichment was performed using GO and KEGG pathway analyses.
Microarray analyses were conducted using the human Clariom D Affymetrix platform following the manufacturer’s instructions (902915, Thermo Fisher Scientific). Briefly, the total RNA was isolated using Total RNA Isolation Kit (Bio-Rad, US). Isolated total RNA was amplified, labeled, and hybridized on Clariom D Affymetrix platform. The arrays were stained by using GeneChip Fluidics Station 450. The cartridge was scanned with the GeneChip Scanner 3000 7G System (Affymetrix CA, USA).

[2] = fold change ≥ 3.0, p-value ≤ 0.05

In the case of Cc1ccc(S(=O)(=O)OC2CCC3(C)C4=CCC5(C)C(C6(C)CCC(C(C)(C)O)O6)C(O)CC5(C)C4C=CC3C2(C)C)cc1 (stereo not shown) [AG-08], the “cell death in presence of Tween 20 (1:40,000)” value (HCC1937 cells) is reported as “inhibited”, the “Gene expression level (Log2)” value ([1]; AC006548.19, control 6.1) is reported as 4.15 Log2 and the “Gene expression level (Log2)” value ([1]; AC068797.1, control 6.72) is reported as 4.17 Log2. For the same compound, the “Gene expression level (Log2)” value ([1]; AC079949.1, control 5.75) was 7.8 Log2, the “Gene expression level (Log2)” value ([1]; ACSM3, control 6.76) was 4.97 Log2 and the “Gene expression level (Log2)” value ([1]; AKAP12, control 6.27) was 9.04 Log2. The “Gene expression level (Log2)” value ([1]; AL161626.1, control 2.85) was 4.86 Log2, the “Gene expression level (Log2)” value ([1]; ATF3, control 5.19) was 7.04 Log2 and the “Gene expression level (Log2)” value ([1]; CCL20, control 12.58) was 15.79 Log2. For the same compound, the “Gene expression level (Log2)” value ([1]; CHAC1, control 7.22) was 9.98 Log2, the “Gene expression level (Log2)” value ([1]; CREB5, control 8.35) was 11.14 Log2 and the “Gene expression level (Log2)” value ([1]; CSF3, control 3.29) was 5.21 Log2. For the same compound, the “Gene expression level (Log2)” value ([1]; CSRNP1, control 5.26) was 7.09 Log2, the “Gene expression level (Log2)” value ([1]; CXCL2, control 8.19) was 10.58 Log2 and the “Gene expression level (Log2)” value ([1]; CXCL3, control 6.99) was 9.67 Log2. The “Gene expression level (Log2)” value ([1]; CXCL8, control 9.63) was 12.86 Log2, the “Gene expression level (Log2)” value ([1]; DAW1, control 4.73) was 7.07 Log2 and the “Gene expression level (Log2)” value ([1]; DDIT3, control 5.64) was 8.56 Log2. For the same compound, the “Gene expression level (Log2)” value ([1]; DNAJB9, control 8.13) was 10.33 Log2, the “Gene expression level (Log2)” value ([1]; DUSP1, control 10.95) was 12.84 Log2 and the “Gene expression level (Log2)” value ([1]; ERO1B, control 6.9) was 8.83 Log2. The “Gene expression level (Log2)” value ([1]; ETS1, control 11.21) was 13.17 Log2, the “Gene expression level (Log2)” value ([1]; FGF5, control 4.09) was 6.46 Log2 and the “Gene expression level (Log2)” value ([1]; FRMD6, control 7.12) was 9.43 Log2. The “Gene expression level (Log2)” value ([1]; GADD45A, control 11.09) was 13.43 Log2, the “Gene expression level (Log2)” value ([1]; GEM, control 4.45) was 6.45 Log2 and the “Gene expression level (Log2)” value ([1]; HERPUD1, control 13.87) was 15.89 Log2. The “Gene expression level (Log2)” value ([1]; HSP90B1, control 8.38) was 10.67 Log2, the “Gene expression level (Log2)” value ([1]; HSPA1A, control 13.53) was 15.75 Log2 and the “Gene expression level (Log2)” value ([1]; HSPA7, control 4.94) was 7.45 Log2. For the same compound, the “Gene expression level (Log2)” value ([1]; IL1A, control 10.2) was 12.9 Log2, the “Gene expression level (Log2)” value ([1]; IL1RL1, control 6.82) was 10.06 Log2 and the “Gene expression level (Log2)” value ([1]; IL6, control 9.32) was 11.97 Log2. For the same compound, the “Gene expression level (Log2)” value ([1]; JUN, control 10.47) was 12.32 Log2, the “Gene expression level (Log2)” value ([1]; KRT5, control 11.75) was 9.49 Log2 and the “Gene expression level (Log2)” value ([1]; LRRC49, control 6.77) was 8.59 Log2. The “Gene expression level (Log2)” value ([1]; MAP1B, control 7.26) was 9.32 Log2, the “Gene expression level (Log2)” value ([1]; MIR1284, control 5.93) was 3.95 Log2 and the “Gene expression level (Log2)” value ([1]; MIR6515, control 4.75) was 6.96 Log2. For the same compound, the “Gene expression level (Log2)” value ([1]; NR4A1, control 6.63) was 8.84 Log2, the “Gene expression level (Log2)” value ([1]; PTGS2, control 9.7) was 11.9 Log2 and the “Gene expression level (Log2)” value ([1]; RCAN1, control 11.4) was 13.43 Log2. The “Gene expression level (Log2)” value ([1]; RN7SKP36, control 4.9) was 6.69 Log2, the “Gene expression level (Log2)” value ([1]; RNA18S5, control 10) was 12.08 Log2 and the “Gene expression level (Log2)” value ([1]; RNU11-6P, control 5.74) was 3.79 Log2. The “Gene expression level (Log2)” value ([1]; RP5-1180E21.5, control 9.91) was 7.94 Log2, the “Gene expression level (Log2)” value ([1]; RP11-74J13.9, control 5.92) was 3.93 Log2 and the “Gene expression level (Log2)” value ([1]; RP11-253I19.3, control 5.74) was 3.7 Log2. For the same compound, the “Gene expression level (Log2)” value ([1]; RP11-632K20.8, control 8.77) was 6.86 Log2, the “Gene expression level (Log2)” value ([1]; SERPINE1, control 7.07) was 9.03 Log2 and the “Gene expression level (Log2)” value ([1]; SIRPG-AS1, control 6.81) was 4.97 Log2. For the same compound, the “Gene expression level (Log2)” value ([1]; SPRR2A, control 6.12) was 8.31 Log2, the “Gene expression level (Log2)” value ([1]; SPRY4, control 4.5) was 6.6 Log2 and the “Gene expression level (Log2)” value ([1]; TNFAIP3, control 12.92) was 15.77 Log2. For the same compound, the “Gene expression level (Log2)” value ([1]; TNFAIP6, control 7.73) was 10.32 Log2, the “Gene expression level (Log2)” value ([1]; TNFRSF9, control 6.22) was 8.07 Log2 and the Fold changes ([1]; UPR gene ATF3) was 3.61. For the same compound, the Fold changes ([1]; UPR gene CXCL8) was 9.38, the Fold changes ([1]; UPR gene DAW1) was 5.06 and the Fold changes ([1]; UPR gene DDIT3 (CHOP)) was 7.57. For the same compound, the Fold changes ([1]; UPR gene DNAJB9) was 4.59, the Fold changes ([1]; UPR gene HERPUD1) was 4.06 and the Fold changes ([1]; UPR gene HSP90B1) was 4.89. For the same compound, the Fold changes ([1]; UPR gene HYOU1) was 3.14, the “Gene expression level (Log2)” value ([1]; Y_RNA, control 2.96) was 4.88 Log2 and the “Gene expression level (Log2)” value ([1]; beyly, control 5.86) was 3.88 Log2. The “Gene expression level (Log2)” value ([1]; bonawbu, control 6.42) was 4.47 Log2, the “Gene expression level (Log2)” value ([1]; borflaw, control 4.1) was 6.24 Log2 and the “Gene expression level (Log2)” value ([1]; cheeju, control 7.11) was 4.53 Log2. The “Gene expression level (Log2)” value ([1]; chergy, control 8.48) was 6.6 Log2, the “Gene expression level (Log2)” value ([1]; chostarby, control 9.01) was 6.86 Log2 and the “Gene expression level (Log2)” value ([1]; choygey, control 9.26) was 11.85 Log2. For the same compound, the “Gene expression level (Log2)” value ([1]; dymabu, control 7.28) was 4.94 Log2, the “Gene expression level (Log2)” value ([1]; ferchor, control 6.47) was 4.51 Log2 and the “Gene expression level (Log2)” value ([1]; floynabo, control 3.01) was 5.07 Log2. The “Gene expression level (Log2)” value ([1]; flyleyby, control 5.79) was 3.87 Log2, the “Gene expression level (Log2)” value ([1]; flyspabu, control 6.68) was 4.45 Log2 and the “number of genes downregulated” value [1, 2] was 115. For the same compound, the “number of genes significantly affected” value [1, 2] was 193, the “number of genes upregulated” value [1, 2] was 78 and the “Gene expression level (Log2)” value ([1]; glupuby, control 8.3) was 6.47 Log2. For the same compound, the “Gene expression level (Log2)” value ([1]; guzobu, control 4.94) was 3.12 Log2, the “Gene expression level (Log2)” value ([1]; hunimo, control 2.97) was 4.9 Log2 and the “Gene expression level (Log2)” value ([1]; jawrubu, control 6.99) was 4.94 Log2. For the same compound, the “Gene expression level (Log2)” value ([1]; keyfybu, control 6.35) was 4.42 Log2, the “Gene expression level (Log2)” value ([1]; klobly, control 8.49) was 6.7 Log2 and the “Gene expression level (Log2)” value ([1]; kluky, control 6.37) was 4.18 Log2. For the same compound, the “Gene expression level (Log2)” value ([1]; leeklerbu, control 4.21) was 2.34 Log2, the “Gene expression level (Log2)” value ([1]; mazybu, control 5.07) was 3.22 Log2 and the “Gene expression level (Log2)” value ([1]; muneme, control 5.09) was 3.26 Log2. The “Gene expression level (Log2)” value ([1]; myklar, control 6.22) was 4.37 Log2, the “Gene expression level (Log2)” value ([1]; plergler, control 8.38) was 5.85 Log2 and the “Gene expression level (Log2)” value ([1]; rersharbu, control 8.82) was 6.82 Log2. The “Gene expression level (Log2)” value ([1]; runara, control 7) was 4.96 Log2, the “Gene expression level (Log2)” value ([1]; skaskoyby, control 8.54) was 6.69 Log2 and the “Gene expression level (Log2)” value ([1]; skeymeybo, control 4.08) was 5.88 Log2. For the same compound, the “Gene expression level (Log2)” value ([1]; skoytoyby, control 3.86) was 5.73 Log2, the “Gene expression level (Log2)” value ([1]; slorfley, control 5.24) was 3.4 Log2 and the “Gene expression level (Log2)” value ([1]; slukeebu, control 7.87) was 5.7 Log2. The “Gene expression level (Log2)” value ([1]; snawperbu, control 10.99) was 8.51 Log2, the “Gene expression level (Log2)” value ([1]; sneykleebu, control 7.89) was 5.94 Log2 and the “Gene expression level (Log2)” value ([1]; spaforby, control 10.31) was 8.45 Log2. For the same compound, the “Gene expression level (Log2)” value ([1]; sparsloy, control 9.51) was 7.2 Log2, the “Gene expression level (Log2)” value ([1]; spernawbo, control 7.18) was 5.32 Log2 and the “Gene expression level (Log2)” value ([1]; sportobo, control 11.14) was 9.07 Log2. For the same compound, the “Gene expression level (Log2)” value ([1]; steybleebu, control 9.69) was 7.5 Log2, the “Gene expression level (Log2)” value ([1]; swawchu, control 12.82) was 10.51 Log2 and the “Gene expression level (Log2)” value ([1]; sworkaby, control 2.37) was 4.69 Log2. For the same compound, the “Gene expression level (Log2)” value ([1]; swyjee, control 7.88) was 6.02 Log2, the “Gene expression level (Log2)” value ([1]; teesnarby, control 5.92) was 4.07 Log2 and the “Gene expression level (Log2)” value ([1]; vybu, control 2.47) was 4.27 Log2. The “Gene expression level (Log2)” value ([1]; vyglabu, control 2.86) was 4.99 Log2.
